In EP4122499A1, “FIBROBLAST ACTIVATION PROTEIN INHIBITORS AND USE THEREOF” (3B Pharmaceuticals GmbH, priority 2021, dated 2023):

Target: T1, Human recombinant FAP (Homo sapiens, UniProt Q12884)
T1 sequence (Q12884 1-760): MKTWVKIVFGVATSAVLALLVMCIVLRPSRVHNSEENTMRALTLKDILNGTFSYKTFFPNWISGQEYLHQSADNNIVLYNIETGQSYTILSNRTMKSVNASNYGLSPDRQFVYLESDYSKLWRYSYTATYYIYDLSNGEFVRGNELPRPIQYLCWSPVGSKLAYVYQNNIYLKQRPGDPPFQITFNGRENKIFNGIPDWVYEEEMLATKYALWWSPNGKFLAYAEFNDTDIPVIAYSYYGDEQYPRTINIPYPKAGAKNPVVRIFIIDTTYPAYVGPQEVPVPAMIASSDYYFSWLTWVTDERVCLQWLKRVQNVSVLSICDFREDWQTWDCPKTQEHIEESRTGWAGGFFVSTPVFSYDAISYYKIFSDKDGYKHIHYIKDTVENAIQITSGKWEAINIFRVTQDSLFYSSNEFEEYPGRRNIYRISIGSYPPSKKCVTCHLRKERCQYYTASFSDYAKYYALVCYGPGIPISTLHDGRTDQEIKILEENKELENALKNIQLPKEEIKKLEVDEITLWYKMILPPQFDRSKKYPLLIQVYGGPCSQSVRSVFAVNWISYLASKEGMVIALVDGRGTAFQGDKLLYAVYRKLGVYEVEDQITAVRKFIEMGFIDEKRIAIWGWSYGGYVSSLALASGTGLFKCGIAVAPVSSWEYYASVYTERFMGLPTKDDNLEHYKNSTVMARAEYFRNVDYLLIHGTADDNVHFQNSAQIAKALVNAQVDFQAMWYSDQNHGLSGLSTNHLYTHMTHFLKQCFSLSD
Assay: Surface plasmon resonance assay (Biacore T200, single cycle kinetics)
Assay type: binding
Conditions: SPR, 25°C; for Kd / pKD (Biacore): 1:1 Langmuir binding model; for Kd: read-out: pKD (Biacore) (converted); for HL [min] (Biacore): half-life
Outline: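 Human recombinant FAP (20 µg/mL) was captured on anti-FAP antibody immobilized on a CM5 chip, and compounds were run in single-cycle kinetics at 25 °C in HBST with 0.1% DMSO, starting from 500 nM. Sensorgrams were corrected against a reference flow cell and for baseline drift. kon, koff, KD and t1/2 came from a 1:1 Langmuir fit, with pKD = −log KD.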

| Structure (SMILES) | Kd [nM] | HL [min] (Biacore) | pKD (Biacore) |
| --- | --- | --- | --- |
| CS(=O)(=O)c1cccc(-c2ccc3nccc(C(=O)NCC(=O)N4CCC[C@H]4C#N)c3c2)c1 | 0.398 | 2.5 |  |
| CS(=O)(=O)c1cccc(-c2ccc3c(C(=O)NCC(=O)N4CCC[C@H]4C#N)ccnc3c2)c1 | 0.501 | 5.7 |  |
| O=C(NCC(=O)N1CCC[C@H]1C(=O)c1nc2ccccc2s1)c1ccnc2ccccc12 | 3.98 | 0.3 |  |
| O=C(NCC(=O)N1CCC[C@H]1C(=O)c1nc2ccccc2o1)c1ccnc2ccccc12 | 0.501 | 3.7 |  |
| O=C(NCC(=O)N1CCC[C@H]1C(=O)c1nccs1)c1ccnc2ccccc12 | 12.6 | 0.3 |  |
| CS(=O)(=O)c1ccc(-c2ccc3nccc(C(=O)NCC(=O)N4CC(F)(F)C[C@H]4C#N)c3c2)cc1 | 0.0251 | 125 |  |
| CS(=O)(=O)c1ccc(-c2ccc3nccc(C(=O)NCC(=O)N4CCC[C@H]4C#N)c3c2)cc1 | 0.158 | 12 |  |
| O=C(O)CN1CCN(CC(=O)O)CCN(CC(=O)N2CCN(CCCOc3ccc4nccc(C(=O)NCC(=O)N5CC(F)(F)C[C@H]5C(=O)c5nc6ccccc6o5)c4c3)CC2)CCN(CC(=O)O)CC1 |  | 57 | 8.6 |
| N#C[C@@H]1CC(F)(F)CN1C(=O)CNC(=O)c1ccnc2ccc(-c3ccc(S(=O)(=O)CCCNC(=O)CN4CCN(CC(=O)O)CCN(CC(=O)O)CCN(CC(=O)O)CC4)cc3)cc12 |  | >500 | >11 |
| O=C(O)CN1CCN(CC(=O)O)CCN(CC(=O)NCCCNC(=O)c2ccc(-c3ccc4nccc(C(=O)NCC(=O)N5CCC[C@H]5C(=O)c5nc6ccccc6o5)c4c3)cc2)CCN(CC(=O)O)CC1 |  | 259.3 | 10.3 |
| N#C[C@@H]1CC(F)(F)CN1C(=O)CNC(=O)c1cc[n+]([O-])c2ccc(OCCCN3CCN(C(=O)CN4CCN(CC(=O)O)CCN(CC(=O)O)CCN(CC(=O)O)CC4)CC3)cc12 |  | 19 | 9.8 |
| N#C[C@@H]1CC(F)(F)CN1C(=O)CNC(=O)c1ccnc2ccc(-c3ccc(C(=O)NCCCNC(=O)CN4CCN(CC(=O)O)CCN(CC(=O)O)CCN(CC(=O)O)CC4)cc3)cc12 |  | 110 | >11 |
| N#C[C@@H]1CC(F)(F)CN1C(=O)CNC(=O)c1ccnc2ccc(-c3ccc(C(=O)NCCN4CCN(C(=O)CN5CCN(CC(=O)O)CCN(CC(=O)O)CCN(CC(=O)O)CC5)CC4)cc3)cc12 |  | >500 | >11 |
| CC(C)(C)c1nnc(C(=O)[C@@H]2CCCN2C(=O)CNC(=O)c2ccnc3ccccc23)o1 | 2.51 | 0.4 |  |
| N#C[C@@H]1CC(F)(F)CN1C(=O)CNC(=O)c1ccnc2ccc(-c3ccc(C(=O)NCCCNC(=O)CN4CCN(CC(=O)O)CCN(CC(=O)O)CCN(CC(=O)O)CC4)nc3)cc12 |  | >500 | >11 |
| N#C[C@@H]1CCCN1C(=O)CNC(=O)c1ccnc2ccc(-c3ccc(C(=O)NCCCNC(=O)CN4CCN(CC(=O)O)CCN(CC(=O)O)CCN(CC(=O)O)CC4)cc3)cc12 |  | 160 | 10.2 |
| O=C(O)CN1CCN(CC(=O)O)CCN(CC(=O)NCCCNC(=O)c2ccc(-c3ccc4nccc(C(=O)NCC(=O)N5CCC[C@H]5B(O)O)c4c3)cc2)CCN(CC(=O)O)CC1 |  | >500 | >11 |
| CS(=O)(=O)c1cccc(-c2ccc3nccc(C(=O)NCC(=O)N4CC(F)(F)C[C@H]4C#N)c3c2)c1 [drawing 288] | 0.0794 | 29 |  |
| CS(=O)(=O)c1cccc(-c2ccc3c(C(=O)NCC(=O)N4CC(F)(F)C[C@H]4C#N)ccnc3c2)c1 [drawing 289] | 0.0794 | 29.5 |  |
| CS(=O)(=O)c1ccc(-c2ccc3c(C(=O)NCC(=O)N4CCC[C@H]4C#N)ccnc3c2)cc1 [drawing 290] | 0.631 | 4 |  |
| O=C(NCC(=O)N1CCC[C@H]1C(=O)c1ncco1)c1ccnc2ccccc12 [drawing 297] | 2.51 | 0.6 |  |
| O=C(O)CN1CCN(CC(=O)O)CCN(CC(=O)N2CCN(CCNC(=O)c3cccc(-c4ccc5c(C(=O)NCC(=O)N6CCC[C@H]6C(=O)c6nc7ccccc7o6)ccnc5c4)c3)CC2)CCN(CC(=O)O)CC1 [drawing 352] |  | >500 | >11 |
| O=C(O)CN1CCN(CC(=O)O)CCN(CC(=O)N2CCN(CCNC(=O)c3cccc(-c4ccc5nccc(C(=O)NCC(=O)N6CCC[C@H]6C(=O)c6nc7ccccc7o6)c5c4)c3)CC2)CCN(CC(=O)O)CC1 [drawing 353] |  | 289.5 | 10.1 |
| O=C(O)CN1CCN(CC(=O)O)CCN(CC(=O)N2CCN(CCNC(=O)c3ccc(-c4ccc5nccc(C(=O)NCC(=O)N6CCC[C@H]6C(=O)c6nc7ccccc7o6)c5c4)cc3)CC2)CCN(CC(=O)O)CC1 [drawing 354] |  | 10.5 | 9.1 |
| O=C(O)CN1CCN(CC(=O)O)CCN(CC(=O)N2CCN(CCNC(=O)c3ccc(-c4ccc5c(C(=O)NCC(=O)N6CCC[C@H]6C(=O)c6nc7ccccc7o6)ccnc5c4)cc3)CC2)CCN(CC(=O)O)CC1 [drawing 355] |  | >500 | >11 |
| O=C(O)CN1CCN(CC(=O)O)CCN(CC(=O)N2CCN(CCCOc3ccc4nccc(C(=O)NCC(=O)N5CCC[C@H]5C(=O)c5nc6ccccc6o5)c4c3)CC2)CCN(CC(=O)O)CC1 [drawing 357] |  | >500 | >11 |
| O=C(O)CN1CCN(CC(=O)O)CCN(CC(=O)N2CCN(CCCOc3ccc4nccc(C(=O)NCC(=O)N5C[C@@H](F)C[C@H]5C(=O)c5nc6ccccc6o5)c4c3)CC2)CCN(CC(=O)O)CC1 [drawing 358] |  | >500 | >11 |
| O=C(O)CN1CCN(CC(=O)O)CCN(CC(=O)N2CCN(CCNC(=O)c3ccc(-c4ccc5nccc(C(=O)NCC(=O)N6C[C@@H](F)C[C@H]6C(=O)c6nc7ccccc7o6)c5c4)cc3)CC2)CCN(CC(=O)O)CC1 [drawing 360] |  | 4.8 | 9 |
| O=C(O)CN1CCN(CC(=O)O)CCN(CC(=O)N2CCN(CCNC(=O)c3ccc(-c4ccc5nccc(C(=O)NCC(=O)N6CCC[C@H]6C(=O)c6nc7ccccc7o6)c5c4)cn3)CC2)CCN(CC(=O)O)CC1 [drawing 361] |  | 4.1 | 8.7 |
